Measured values taken from patent US20220233529A1, “COMBINATION THERAPY COMPRISING A2A/A2B INHIBITORS, PD-1/PD-L1 INHIBITORS, AND ANTI-CD73 ANTIBODIES” (Incyte Corporation, priority 2020, published 2022).
Read-outs that look alike come from different tables or passages of the source.

Tests used:
Adenosine A2A Receptor = biological target: T1, Adenosine A2A Receptor (Homo sapiens, UniProt P29274); experiment: A2A Tag-lite HTRF assay; assay type: binding; details: Tag-lite Adenosine A2A labeled cells; fluorescent antagonist ligand 12.5 nM
T1 construct: Tag-lite label (own knowledge: SNAP-tag fusion labeled with terbium); purchased CisBio C1TT1A2A
Protocol: Test compounds were first serially diluted in DMSO and 100 nL added to the plate wells before the addition of other reaction components. The final concentration of DMSO was 1%. Tag-lite® Adenosine A2A labeled cells (CisBio C1TT1A2A) were diluted 1:5 into Tag-lite buffer (CisBio LABMED) and spun 1200 g for 5 mins.

[1] = biological target: T2, human adenosine A2B receptor (Homo sapiens, UniProt P29275); experiment: Adenosine A2B Receptor cyclic AMP GS Assay; assay type: cell-based
T2 construct: host or cells: HEK-293 (stably transfected)
T2 sequence (P29275 1-332): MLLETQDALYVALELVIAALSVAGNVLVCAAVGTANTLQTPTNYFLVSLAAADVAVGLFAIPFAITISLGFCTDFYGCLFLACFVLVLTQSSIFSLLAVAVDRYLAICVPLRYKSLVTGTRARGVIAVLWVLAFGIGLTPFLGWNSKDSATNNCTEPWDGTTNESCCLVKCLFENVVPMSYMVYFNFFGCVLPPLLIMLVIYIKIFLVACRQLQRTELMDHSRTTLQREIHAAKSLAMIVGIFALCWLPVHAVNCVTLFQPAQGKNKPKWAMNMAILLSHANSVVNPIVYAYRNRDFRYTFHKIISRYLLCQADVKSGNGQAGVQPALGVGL
Protocol: Stably transfected HEK-293 cells expressing the human adenosine A2B receptor (Perkin Elmer) were maintained in MEM culture medium with 10% FBS and 100 μg/mL Geneticin (Life Technologies). 18 to 24 hours prior to assay, geneticin was removed from culture. The cisbio cAMP-GS Dynamic kit utilizing the FRET (Fluorescence Resonance Energy Transfer) technology was used to measure cAMP accumulation in the cells. Compounds of the present disclosure at an appropriate concentration were mixed with 10000 cells/well in white 96 well half area plates (Perkin Elmer) for 30 min at RT gently shaking. […] Detection reagents, d2-labeled cAMP (acceptor) and anti-cAMP cryptate (donor) were added to each well for 60 min at RT gently shaking.

[2] = test system: human breast adenocarcinoma tumor, MDA-MB-231; experiment: Anti-tumor efficacy in humanized murine host carrying MDA-MB-231 tumor; assay type: in vivo, human CD34+ reconstituted mice; details: vs Vehicle + IgG isotype, ANTIBODY Y 10 mg/kg i.p. every 5 days, retifanlimab 1 mg/mL i.p. every 5 days, Compound 9 10 mg/kg p.o. b.i.d., dosing day 7-35
Protocol: On day 7, and every 3 to 4 days subsequently, tumors were measured by Vernier caliper and tumor volume was calculated by the formula, Volume=[L (long dimension)×W^2 (short dimension)]/2. Based on these measurements, mice were randomized into 8 treatment groups of 10 mice each with an average starting tumor volume of 180 mm^3. The studied agents were formulated and administered as follows: ANTIBODY Y was diluted to a final concentration of 1 mg/mL in phosphate-buffered saline and administered by intraperitoneal (i.p.) injection at 10 mL/kg to mice for a dose of 10 mg/kg, every 5 days. Retifanlimab (Macrogenics) was diluted to 1 mg/mL and dosed i.p., every 5 days. For combination treatments, the two antibodies were co-formulated to a concentration of 1 mg/mL, each. The oral vehicle was 5% N,N-dimethylacetamide in 0.5% methyl-cellulose in 50 mM citrate buffer, pH 3.0 (all reagents obtained from Sigma) and was administered by oral gavage (p.o.) twice daily (b.i.d.).
Dosing began at day 7, and ran for 28 days, through day 35. […]
Tumor Growth Inhibition (TGI), defined as (1-treatment group volume)/control group volume)×100 was analyzed for the whole study on day 47, the last day prior to some animals leaving the study at their endpoint. […]

[3] = HEK-293 cells expressing human A2B, agonist NECA 12 nM, cAMP accumulation, read-out: A2B—cAMP_EC50

T1 sequence (P29274 whole entry, the tested form may be a part): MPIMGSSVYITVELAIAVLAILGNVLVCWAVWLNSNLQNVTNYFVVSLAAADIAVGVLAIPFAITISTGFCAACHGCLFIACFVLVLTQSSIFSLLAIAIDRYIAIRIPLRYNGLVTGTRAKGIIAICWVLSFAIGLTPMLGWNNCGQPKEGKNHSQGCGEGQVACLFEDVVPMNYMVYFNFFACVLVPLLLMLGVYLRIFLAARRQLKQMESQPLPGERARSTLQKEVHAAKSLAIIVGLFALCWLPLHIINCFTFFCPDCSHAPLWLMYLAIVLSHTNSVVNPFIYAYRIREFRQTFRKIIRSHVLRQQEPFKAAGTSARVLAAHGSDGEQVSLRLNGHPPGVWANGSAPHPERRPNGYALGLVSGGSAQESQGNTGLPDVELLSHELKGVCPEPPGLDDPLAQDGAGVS

Compound	Ki (Adenosine A2A Receptor) [nM]	further results
N#Cc1cccc(-c2nc(N)n3nc(C(O)c4c(F)cccc4F)nc3c2-c2ccncn2)c1 (single isomer, unassigned) [Compound 2, 3-(5-Amino-2-((2,6-difluorophenyl)(hydroxy)methyl)-8-(pyrimidin-4-yl)-[1,2,4]triazolo[1,5-c]pyrimidin-7-yl)benzonitrile]	< 10	–
CN1CCC(NCc2cccc(F)c2C(O)c2nc3cc(-c4cccc(C#N)c4F)nc(N)n3n2)C1=O (single isomer, unassigned) [Compound 8, 3-(5-Amino-2-((2-fluoro-6-(((1-methyl-2-oxopyrrolidin-3-yl)amino)methyl)phenyl)(hydroxy)methyl)-[1,2,4]triazolo[1,5-c]pyrimidin-7-yl)-2-fluorobenzonitrile]	< 10	–
Cc1ncoc1-c1c(-c2cccc(C#N)c2)nc(N)c2nc(C(N)c3c(F)cccc3F)nn12 (single isomer, unassigned) [Compound 11, 3-(8-amino-2-(amino(2,6-difluorophenyl)methyl)-5-(4-methyloxazol-5-yl)-[1,2,4]triazolo[1,5-a]pyrazin-6-yl)benzonitrile]	< 10	EC50 [1]: < 10 nM
N#Cc1cccc(-c2nc(N)n3nc(Cc4ccccn4)nc3c2-c2ccncn2)c1 [Compound 1, 3-(5-Amino-2-(pyridin-2-ylmethyl)-8-(pyrimidin-4-yl)-[1,2,4]triazolo[1,5-c]pyrimidin-7-yl)benzonitrile]	< 10	–
Cc1cccnc1COc1nc2c(-c3ccncn3)c(-c3cccc(C#N)c3)nc(N)n2n1 [Compound 4, 3-(5-Amino-2-((3-methylpyridin-2-yl)methoxy)-8-(pyrimidin-4-yl)-[1,2,4]triazolo[1,5-c]pyrimidin-7-yl)benzonitrile]	< 10	–
N#Cc1cccc(-c2cc3nc(C(O)c4ccccc4)nn3c(N)n2)c1 (stereo not shown) [Compound 5, 3-(5-Amino-2-(hydroxy(phenyl)methyl)-[1,2,4]triazolo[1,5-c]pyrimidin-7-yl)benzonitrile]	< 10	EC50 [1, 3]: < 10 nM
N#Cc1cccc(-c2cc3nc(C(O)c4c(F)cccc4F)nn3c(N)n2)c1F (stereo not shown) [Compound 6, 3-(5-Amino-2-((2,6-difluorophenyl)(hydroxy)methyl)-[1,2,4]triazolo[1,5-c]pyrimidin-7-yl)-2-fluorobenzonitrile]	< 10	EC50 [1, 3]: < 10 nM
N#Cc1cccc(-c2nc(N)n3nc(C(O)c4c(F)cccc4F)nc3c2C#N)c1F (stereo not shown) [Compound 7, 5-Amino-7-(3-cyano-2-fluorophenyl)-2-((2,6-difluorophenyl)(hydroxy)methyl)-[1,2,4]triazolo[1,5-c]pyrimidine-8-carbonitrile]	< 10	EC50 [1, 3]: < 10 nM
Cn1nc(-c2c(-c3cccc(C#N)c3)nc(N)c3nc(Cc4ccccn4)nn23)ccc1=O [Compound 9, 3-(8-Amino-5-(1-methyl-6-oxo-1,6-dihydropyridazin-3-yl)-2-(pyridin-2-ylmethyl)-[1,2,4]triazolo[1,5-a]pyrazin-6-yl)benzonitrile]	–	Percent TGI (Day 47 Tumor Growth Inhibition) [2]: 18.42%
N#Cc1cccc(-c2nc(N)c3nn(Cc4ccccn4)nc3c2-c2ccncn2)c1 [Compound 13, 3-(4-amino-2-(pyridin-2-ylmethyl)-7-(pyrimidin-4-yl)-2H-[1,2,3]triazolo[4,5-c]pyridin-6-yl)benzonitrile]	< 10	–
N#Cc1cccc(-c2nc(N)c3nn(Cc4ncccc4F)nc3c2-c2ccncn2)c1 [Compound 14, 3-(4-amino-2-((3-fluoropyridin-2-yl)methyl)-7-(pyrimidin-4-yl)-2H-[1,2,3]triazolo[4,5-c]pyridin-6-yl)benzonitrile]	< 10	–
N#Cc1cccc(-c2nc(N)c3nn(Cc4ncccc4F)nc3c2-c2ccncc2)c1 [Compound 15, 3-(4-amino-2-((3-fluoropyridin-2-yl)methyl)-7-(pyridin-4-yl)-2H-[1,2,3]triazolo[4,5-c]pyridin-6-yl)benzonitrile]	< 10	–
Cn1nccc1-c1c(-c2cccc(C#N)c2F)nc(N)c2nn(Cc3ccccn3)nc12 [Compound 16, 3-(4-amino-7-(1-methyl-1H-pyrazol-5-yl)-2-(pyridin-2-ylmethyl)-2H-[1,2,3]triazolo[4,5-c]pyridin-6-yl)-2-fluorobenzonitrile]	< 10	–
CCCCCn1c2cc(-c3cnn(Cc4cncc(Cl)c4)c3)[nH]c2c(=O)n2c(C)nnc12 [Compound 17, 7-(1-((5-Chloropyridin-3-yl)methyl)-1H-pyrazol-4-yl)-3-methyl-9-pentyl-6,9-dihydro-5H-pyrrolo[3,2-d][1,2,4]triazolo[4,3-a]pyrimidin-5-one]	< 10	–
CCCCCn1c2cc(-c3cnn(Cc4cncc(C)c4)c3)[nH]c2c(=O)n2c(C)nnc12 [Compound 18, 3-Methyl-7-(1-((5-methylpyridin-3-yl)methyl)-1H-pyrazol-4-yl)-9-pentyl-6,9-dihydro-5H-pyrrolo[3,2-d][1,2,4]triazolo[4,3-a]pyrimidin-5-one]	< 10	–
CCCCCn1c2cc(-c3cnn(Cc4cnc5ccsc5c4)c3)[nH]c2c(=O)n2c(C)nnc12 [Compound 19, 3-Methyl-9-pentyl-7-(1-(thieno[3,2-b]pyridin-6-ylmethyl)-1H-pyrazol-4-yl)-6,9-dihydro-5H-pyrrolo[3,2-d][1,2,4]triazolo[4,3-a]pyrimidin-5-one]	< 10	–
CCCCCn1c2cc(-c3cnn(Cc4ccc5c(c4)CCN(C(=O)CN(C)C)C5)c3)[nH]c2c(=O)n2c(C)nnc12 [Compound 20, 7-(1-((2-(2-(Dimethylamino)acetyl)-1,2,3,4-tetrahydroisoquinolin-6-yl)methyl)-1H-pyrazol-4-yl)-3-methyl-9-pentyl-6,9-dihydro-5H-pyrrolo[3,2-d][1,2,4]triazolo[4,3-a]pyrimidin-5-one]	< 10	–
retifanlimab: humanized IgG4 monoclonal antibody that binds to human PD-1; heavy chain SEQ ID NO:2, light chain SEQ ID NO:3	–	Percent TGI (Day 47 Tumor Growth Inhibition) [2]: 9.57%
